Measured values published in ChEMBL document CHEMBL1139608, “Non-hydroxamate 5-phenylpyrimidine-2,4,6-trione derivatives as selective inhibitors of tumor necrosis factor-alpha converting enzyme” (Bioorg Med Chem Lett, 2005).

Legend:
[1] = In vitro percent inhibition against aggrecanase at the concentration of 1 uM
[2] = biological target: 72 kDa type IV collagenase (Homo sapiens, UniProt P08253); experiment: In vitro binding affinity against matrix metalloprotease 2
[3] = biological target: T1, Interstitial collagenase (Homo sapiens, UniProt P03956); experiment: In vitro binding affinity against matrix metalloprotease 1
T1 sequence (P03956 whole entry): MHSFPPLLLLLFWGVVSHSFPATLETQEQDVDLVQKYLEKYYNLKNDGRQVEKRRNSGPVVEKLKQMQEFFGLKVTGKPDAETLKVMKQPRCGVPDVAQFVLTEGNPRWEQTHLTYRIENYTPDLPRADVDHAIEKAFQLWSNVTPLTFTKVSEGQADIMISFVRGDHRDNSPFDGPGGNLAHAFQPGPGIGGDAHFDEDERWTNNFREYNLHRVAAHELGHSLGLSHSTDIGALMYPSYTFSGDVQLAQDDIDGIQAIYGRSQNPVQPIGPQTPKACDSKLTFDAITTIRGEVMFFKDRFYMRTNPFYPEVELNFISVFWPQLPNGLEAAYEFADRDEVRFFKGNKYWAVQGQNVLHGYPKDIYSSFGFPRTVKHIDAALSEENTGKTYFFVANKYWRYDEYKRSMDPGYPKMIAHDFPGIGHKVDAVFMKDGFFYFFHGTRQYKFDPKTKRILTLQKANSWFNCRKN

[4] = biological target: Matrix metalloproteinase-9 (Homo sapiens, UniProt P14780); experiment: In vitro binding affinity against matrix metalloprotease 9
Matrix metalloproteinase-9, sequence (P14780 whole entry): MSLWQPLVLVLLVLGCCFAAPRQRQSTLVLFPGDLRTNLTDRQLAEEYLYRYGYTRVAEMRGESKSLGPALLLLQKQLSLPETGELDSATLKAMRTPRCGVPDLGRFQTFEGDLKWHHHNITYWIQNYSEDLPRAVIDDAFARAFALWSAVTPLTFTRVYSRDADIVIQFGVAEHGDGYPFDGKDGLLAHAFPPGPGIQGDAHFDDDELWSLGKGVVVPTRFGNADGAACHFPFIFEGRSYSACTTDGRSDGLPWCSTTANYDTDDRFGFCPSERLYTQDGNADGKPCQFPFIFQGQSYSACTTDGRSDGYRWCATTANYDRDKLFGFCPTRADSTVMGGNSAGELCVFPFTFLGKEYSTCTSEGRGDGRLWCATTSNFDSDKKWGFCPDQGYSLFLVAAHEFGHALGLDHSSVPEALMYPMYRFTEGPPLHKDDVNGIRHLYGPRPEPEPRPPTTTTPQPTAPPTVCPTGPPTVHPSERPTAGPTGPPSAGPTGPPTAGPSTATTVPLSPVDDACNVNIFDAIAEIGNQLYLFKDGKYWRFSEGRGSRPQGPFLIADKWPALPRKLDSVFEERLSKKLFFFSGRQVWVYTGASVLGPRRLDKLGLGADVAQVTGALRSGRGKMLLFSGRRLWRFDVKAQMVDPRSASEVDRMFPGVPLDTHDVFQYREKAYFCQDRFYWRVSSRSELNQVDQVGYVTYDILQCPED

[5] = biological target: Collagenase 3 (Homo sapiens, UniProt P45452); experiment: In vitro binding affinity against matrix metalloprotease 13
[6] = biological target: Disintegrin and metalloproteinase domain-containing protein 17 (Homo sapiens, UniProt P78536); experiment: In vitro inhibitory concentration against human tumor necrosis factor-alpha converting enzyme
Disintegrin and metalloproteinase domain-containing protein 17, sequence (P78536 whole entry, the tested form may be a part): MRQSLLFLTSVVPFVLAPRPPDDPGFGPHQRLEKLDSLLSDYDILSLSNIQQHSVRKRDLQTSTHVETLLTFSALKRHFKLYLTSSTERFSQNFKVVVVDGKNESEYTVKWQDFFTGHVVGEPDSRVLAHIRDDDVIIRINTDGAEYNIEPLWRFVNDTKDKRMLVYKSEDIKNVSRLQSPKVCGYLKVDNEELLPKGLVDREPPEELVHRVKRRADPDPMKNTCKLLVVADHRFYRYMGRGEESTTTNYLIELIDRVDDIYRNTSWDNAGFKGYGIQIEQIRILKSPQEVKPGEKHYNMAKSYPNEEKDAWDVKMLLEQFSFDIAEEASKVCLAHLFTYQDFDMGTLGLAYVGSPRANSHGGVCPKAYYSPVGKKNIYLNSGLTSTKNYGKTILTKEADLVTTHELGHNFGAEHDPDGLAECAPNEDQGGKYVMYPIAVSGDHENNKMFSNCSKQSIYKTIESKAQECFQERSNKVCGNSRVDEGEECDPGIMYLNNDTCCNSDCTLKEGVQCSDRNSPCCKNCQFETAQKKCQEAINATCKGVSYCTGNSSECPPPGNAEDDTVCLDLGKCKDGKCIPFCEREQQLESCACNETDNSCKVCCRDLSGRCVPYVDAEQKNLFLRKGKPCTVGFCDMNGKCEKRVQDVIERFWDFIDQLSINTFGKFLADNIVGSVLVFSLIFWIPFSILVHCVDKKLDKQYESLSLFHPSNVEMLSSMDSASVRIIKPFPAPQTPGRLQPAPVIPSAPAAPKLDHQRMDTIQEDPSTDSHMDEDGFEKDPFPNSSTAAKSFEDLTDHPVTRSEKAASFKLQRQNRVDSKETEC

72 kDa type IV collagenase, sequence (P08253 whole entry): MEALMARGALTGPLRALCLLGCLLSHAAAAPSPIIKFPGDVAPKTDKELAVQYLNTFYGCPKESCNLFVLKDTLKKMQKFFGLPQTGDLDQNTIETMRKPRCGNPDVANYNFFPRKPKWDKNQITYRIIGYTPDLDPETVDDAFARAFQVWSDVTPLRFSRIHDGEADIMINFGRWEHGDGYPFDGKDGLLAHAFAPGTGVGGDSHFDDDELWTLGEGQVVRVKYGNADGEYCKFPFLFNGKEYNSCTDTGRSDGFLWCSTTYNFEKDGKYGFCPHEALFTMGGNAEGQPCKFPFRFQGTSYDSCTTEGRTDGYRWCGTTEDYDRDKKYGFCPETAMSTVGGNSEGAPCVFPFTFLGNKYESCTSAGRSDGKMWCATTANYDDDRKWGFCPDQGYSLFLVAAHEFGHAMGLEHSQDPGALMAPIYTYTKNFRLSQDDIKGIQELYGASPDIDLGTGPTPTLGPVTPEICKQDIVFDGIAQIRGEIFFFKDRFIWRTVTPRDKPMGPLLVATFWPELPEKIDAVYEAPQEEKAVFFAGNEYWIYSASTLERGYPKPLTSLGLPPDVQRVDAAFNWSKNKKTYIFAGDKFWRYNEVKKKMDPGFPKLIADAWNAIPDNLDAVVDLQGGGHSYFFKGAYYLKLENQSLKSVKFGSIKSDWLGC

| Structure (SMILES) | inhibition [1] [%] | Ki [2] [nM] | Ki [3] [nM] | Ki [4] [nM] | Ki [5] [nM] | IC50 [6] [nM] |
| --- | --- | --- | --- | --- | --- | --- |
| Cc1cc(COc2ccc(C3(N4CCCCC4)C(=O)NC(=O)NC3=O)cc2)c2ccccc2n1 | 0 | > 3330 | > 4950 | > 2130 | > 5020 | 855 |
| CC(=O)c1ccc(N2CCN(C3(c4ccc(OCc5cc(C)nc6ccccc56)cc4)C(=O)NC(=O)NC3=O)CC2)cc1 | 8 | > 3330 | > 4950 | > 2130 | > 5020 | 620 |
| CC1(c2ccc(OCc3ccccc3)cc2)C(=O)NC(=O)NC1=O | 0 | 600 | > 4950 | > 2130 | 4020 | > 100000 |
| CCCCCCN1CCN(C2(c3ccc(OCc4cc(C)nc5ccccc45)cc3)C(=O)NC(=O)NC2=O)CC1 | 12 | > 3330 | > 4950 | > 2130 | > 5020 | 81 |
| Cc1cc(COc2ccc(C3(N4CCN(CCc5ccccc5)CC4)C(=O)NC(=O)NC3=O)cc2)c2ccccc2n1 | 38 | 83 | > 4950 | 85 | 95 | 84 |
| Cc1cc(COc2ccc(C3(N4CCN(C(=O)OC(C)(C)C)CC4)C(=O)NC(=O)NC3=O)cc2)c2ccccc2n1 | 10 | > 3330 | > 4950 | > 2130 | > 5020 | 160 |
| CC1(c2ccc(Oc3ccccc3)cc2)C(=O)NC(=O)NC1=O | – | 80 | – | 52 | 65 | – |
| Cc1cc(COc2ccc(C3(C)C(=O)NC(=O)NC3=O)cc2)c2ccccc2n1 | 0 | > 3330 | > 4950 | > 2130 | 5020 | 1030 |
| Cc1cc(COc2ccc(C3(N4CCN(C(=O)C(C)(C)C)CC4)C(=O)NC(=O)NC3=O)cc2)c2ccccc2n1 | 0 | > 3330 | > 4950 | > 2130 | > 5020 | 5400 |
| Cc1cc(COc2ccc(C3(N4CCN(CC(C)(C)C)CC4)C(=O)NC(=O)NC3=O)cc2)c2ccccc2n1 | 10 | > 3330 | > 4950 | > 2130 | > 5020 | 160 |
| Cc1cc(COc2ccc(C3(N4CCN(C)CC4)C(=O)NC(=O)NC3=O)cc2)c2ccccc2n1 | 37 | > 3330 | > 4950 | > 2130 | > 5020 | 91 |
| Cc1cc(COc2ccc3cc(C4(C)C(=O)NC(=O)NC4=O)ccc3c2)c2ccccc2n1 | 1 | 3330 | – | – | – | > 100000 |
| Cc1cc(COc2ccc(C3(N4CCN(CCCc5ccccc5)CC4)C(=O)NC(=O)NC3=O)cc2)c2ccccc2n1 | 12 | 3100 | > 4950 | 2040 | 5020 | 110 |
| Cc1cc(COc2ccc(C3(N4CCN(C(C)C)CC4)C(=O)NC(=O)NC3=O)cc2)c2ccccc2n1 | 0 | > 3330 | > 4950 | > 2130 | > 5020 | 96 |
| CC1(c2ccc(O)cc2)C(=O)NC(=O)NC1=O | 0 | 2530 | > 4950 | 850 | > 5020 | > 100000 |
| Cc1cc(COc2ccc(C3(N4CCNCC4)C(=O)NC(=O)NC3=O)cc2)c2ccccc2n1 | 0 | > 3330 | > 4950 | > 2130 | > 5020 | 1100 |
| Cc1cc(COc2ccc(C3(N4CCN(S(C)(=O)=O)CC4)C(=O)NC(=O)NC3=O)cc2)c2ccccc2n1 | 5 | > 3330 | > 4950 | > 2130 | > 5020 | 275 |
| Cc1cc(COc2ccc(C3(N4CCOCC4)C(=O)NC(=O)NC3=O)cc2)c2ccccc2n1 | 1 | > 3330 | > 4950 | > 2130 | > 5020 | 535 |
| Cc1cc(COc2ccc(C3(N4CCN(Cc5ccccc5)CC4)C(=O)NC(=O)NC3=O)cc2)c2ccccc2n1 | 5 | > 3330 | > 4950 | > 2130 | > 5020 | 195 |
| Cc1cc(COc2ccc(C3(N4CCN(c5ccc([N+](=O)[O-])cc5)CC4)C(=O)NC(=O)NC3=O)cc2)c2ccccc2n1 | 0 | 116 | > 4350 | 138 | 356 | 2800 |
